What was measured:
[1] = tested on: wheat; test: Test B postemergence herbicide test; type: in vivo, Triticum aestivum; parameters: key to Wheat plant response rating: 0 = no effect, 100 = complete control; conditions: postemergence, visual rating, scale 0 (no effect) to 100 (complete control)
How it was run: (§1)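 Treated at 2-leaf (paddy) or 1–4-leaf, 2–18 cm (postemergence); greenhouse 13–15 d; visual score vs control, 0 none to 100 complete control; dash = not tested.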

[2] = tested on: cocklebur; test: Test B pre-/postemergence herbicide test; type: in vivo, Xanthium strumarium; conditions: for Cocklebur plant response rating: postemergence, visual rating, scale 0 (no effect) to 100 (complete control)
How it was run: (§2)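 Herbicidal effect was judged by eye on a 0–100 scale after plants stood 13 to 15 days in the greenhouse following pre- or postemergence treatment with surfactant-containing formulations.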

[3] = tested on: morningglory; test: Test B pre-/postemergence herbicide test; type: in vivo, Ipomoea coccinea; conditions: for Morningglory plant response rating: postemergence, visual rating, scale 0 (no effect) to 100 (complete control)
How it was run: as §2

[4] = tested on: small flower umbrella sedge; test: Test B flooded paddy test; type: in vivo, Cyperus difformis; conditions: 1000 g ai/ha, visual rating, scale 0 to 100 (0 no effect, 100 complete control), 13 to 15 days
How it was run: as §1

[5] = tested on: giant foxtail; test: Test B pre-/postemergence herbicide test; type: in vivo, Setaria faberi; conditions: for Foxtail, Giant plant response rating: postemergence, visual rating, scale 0 (no effect) to 100 (complete control)
How it was run: (§3)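 Pre: seeds sown, then sprayed. Post: 1–4-leaf plants (2–18 cm) sprayed at the same time. Paddy: flooded, treated at 2-leaf stage. Formulation: non-phytotoxic solvent with surfactant. Greenhouse 13–15 days; visual 0–100 score relative to controls.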

[6] = tested on: lambsquarters; test: Test B pre-/postemergence herbicide test; type: in vivo, Chenopodium album; conditions: for Lambsquarters plant response rating: postemergence, visual rating, scale 0 (no effect) to 100 (complete control)
How it was run: as §3

[7] = tested on: blackgrass; test: Test B postemergence herbicide test; type: in vivo, Alopecurus myosuroides; conditions: postemergence, visual rating, scale 0 (no effect) to 100 (complete control)
How it was run: as §1

[8] = tested on: barnyardgrass; test: Test B flooded paddy test; type: in vivo, Echinochloa crus-galli; conditions: 1000 g ai/ha, visual rating, scale 0 to 100 (0 no effect, 100 complete control), 13 to 15 days
How it was run: as §1

[9] = tested on: velvetleaf; test: Test B pre-/postemergence herbicide test; type: in vivo, Abutilon theophrasti; conditions: for Velvetleaf plant response rating: postemergence, visual rating, scale 0 (no effect) to 100 (complete control)
How it was run: as §3

[10] = tested on: large crabgrass; test: Test B pre-/postemergence herbicide test; type: in vivo, Digitaria sanguinalis; conditions: for Crabgrass, Large plant response rating: postemergence, visual rating, scale 0 (no effect) to 100 (complete control)
How it was run: as §3

[11] = tested on: wild oat; test: Test B postemergence herbicide test; type: in vivo, Avena fatua; conditions: postemergence, visual rating, scale 0 (no effect) to 100 (complete control)
How it was run: as §1

[12] = tested on: rice; test: Test B flooded paddy test; type: in vivo, Oryza sativa; conditions: 1000 g ai/ha, visual rating, scale 0 to 100 (0 no effect, 100 complete control), 13 to 15 days
How it was run: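 Plants grow to 1- to 4-leaf stage (2–18 cm) for postemergence spraying, or to 2-leaf stage for the paddy test. Formulated compound is applied. Greenhouse holding lasts 13–15 days. Response is scored visually relative to controls, 0 no effect to 100 complete control; a dash means no result.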

[13] = tested on: Surinam grass; test: Test B pre-/postemergence herbicide test; type: in vivo, Urochloa decumbens; conditions: for Surinam Grass plant response rating: postemergence, visual rating, scale 0 (no effect) to 100 (complete control)
How it was run: as §3

[14] = tested on: pigweed; test: Test B pre-/postemergence herbicide test; type: in vivo, Amaranthus retroflexus; conditions: for Pigweed plant response rating: postemergence, visual rating, scale 0 (no effect) to 100 (complete control)
How it was run: as §3

[15] = tested on: corn; test: Test B pre-/postemergence herbicide test; type: in vivo, Zea mays; conditions: for Corn plant response rating: postemergence, visual rating, scale 0 (no effect) to 100 (complete control)
How it was run: as §3

[16] = 125 g ai/ha, 0 = no effect, 100 = complete control, preemergence
[17] = 500 g ai/ha, visual rating 0-100, 0 no effect, 100 complete control, preemergence

CCc1nn(C(C)(C)C)cc1C(=O)Nc1cccc(C(C)=NO)c1 [Compound 188]
0: Wheat plant response rating ([1]; 125 g ai/ha) | Cocklebur plant response rating (0 to 100 scale) [2, 16] | Plant response rating, Cocklebur [2, 17]
40: Pigweed plant response rating (0 to 100 scale) [14, 16]
80: Sedge, Umbrella plant response rating [4]
30: Surinam Grass plant response rating (0 to 100 scale) [13, 16]
20: Cocklebur plant response rating ([2]; 125 g ai/ha) | Morningglory plant response rating ([3]; 125 g ai/ha) | Velvetleaf plant response rating ([9]; 500 g ai/ha) | Oat, Wild plant response rating ([11]; 125 g ai/ha) | Oat, Wild plant response rating ([11]; 500 g ai/ha) | Corn plant response rating ([15]; 500 g ai/ha)
60: Morningglory plant response rating ([3]; 500 g ai/ha) | Lambsquarters plant response rating ([6]; 125 g ai/ha) | Barnyardgrass plant response rating [8]
100: Plant response rating, Foxtail, Giant [5, 17] | Plant response rating, Lambsquarters [6, 17] | Plant response rating, Velvetleaf [9, 17] | Crabgrass, Large plant response rating (0 to 100 scale) [10, 16] | Plant response rating, Crabgrass, Large [10, 17]
90: Cocklebur plant response rating ([2]; 500 g ai/ha) | Lambsquarters plant response rating (0 to 100 scale) [6, 16]
50: Foxtail, Giant plant response rating (0 to 100 scale) [5, 16] | Pigweed plant response rating ([14]; 125 g ai/ha) | Plant response rating, Corn [15, 17]
10: Wheat plant response rating ([1]; 500 g ai/ha) | Morningglory plant response rating (0 to 100 scale) [3, 16] | Foxtail, Giant plant response rating ([5]; 125 g ai/ha) | Foxtail, Giant plant response rating ([5]; 500 g ai/ha) | Blackgrass plant response rating ([7]; 125 g ai/ha) | Blackgrass plant response rating ([7]; 500 g ai/ha) | Velvetleaf plant response rating ([9]; 125 g ai/ha) | Crabgrass, Large plant response rating ([10]; 125 g ai/ha) | Crabgrass, Large plant response rating ([10]; 500 g ai/ha) | Surinam Grass plant response rating ([13]; 125 g ai/ha) | Surinam Grass plant response rating ([13]; 500 g ai/ha) | Corn plant response rating (0 to 100 scale) [15, 16] | Corn plant response rating ([15]; 125 g ai/ha)
70: Lambsquarters plant response rating ([6]; 500 g ai/ha) | Velvetleaf plant response rating (0 to 100 scale) [9, 16] | Rice plant response rating [12] | Plant response rating, Surinam Grass [13, 17] | Plant response rating, Pigweed [14, 17] | Pigweed plant response rating ([14]; 500 g ai/ha)
